Literature values as cited in patent publication US20080045583A1, “STABLE LEVETIRACETAM COMPOSITIONS AND METHODS” (priority 2006, published 2008).

Settings: oral, with or without food

In the case of `CC[C@@H](C(N)=O)N1CCCC1=O` [Levetiracetam, (−)-(S)-α-ethyl-2-oxo-1-pyrrolidine acetamide], the “bioavailability, effect of food” value is listed as “not affected by food”.
